Laboratory results: ChEMBL document CHEMBL5375957, “Optimization of Novel α7 Nicotinic Acetylcholine Receptor Positive Allosteric Modulators and the Discovery of a Preclinical Development Candidate Molecule (RGH-560)” (J Med Chem, 2023)
Values after ≈ are worked out from the molar mass of the structure shown. Active and inactive are the calls of the source. The rule behind the calls is not given here.

Legend:
[1] = Kinetic solubility of compound at pH 7.4 incubated for 2 hrs by UV-HPLC analysis; type: physicochemical; conditions: buffer, read-out: Kinetic_solubility
[2] = molecular target: Neuronal acetylcholine receptor subunit alpha-7 (Homo sapiens, UniProt P36544); assay: Positive allosteric modulator activity at human alpha7 nAChR expressed in Flp-In HEK293 cells assessed as increase in calcium influx incubated for 10 mins by fluorescence based analysis; type: cell-based
[3] = Metabolic stability in human liver microsome assessed as intrinsic clearance measured per mg of protein incubated for 40 mins; type: ADME; conditions: liver microsomes, read-out: CLH
[4] = Metabolic stability in Wistar rat liver microsome assessed as intrinsic clearance measured per mg of protein incubated for 40 mins; type: ADME; conditions: liver microsomes, read-out: CLH
[5] = Metabolic stability in NMRI mouse liver microsome assessed as intrinsic clearance measured per mg of protein incubated for 40 mins; type: ADME; conditions: liver microsomes, read-out: CLH
Mus musculus [6] = assay: Cognitive activity in scopolamine induced amnesia NMRI mouse model assessed as recognition index at 1 to 10 mg/kg, ip pretreated with compound for 30 mins followed by scopolamine induction by Y maze test; type: functional, organism-based; conditions: dose 1-10 mg/kg
[7] = Drug concentration in NMRI mouse brain at 1 mg/kg, ip measured after 1 hr by HPLC-MS/MS analysis; type: ADME, organism-based; conditions: read-out: Ct
[8] = Drug concentration in NMRI mouse brain at 3 mg/kg, ip measured after 1 hr by HPLC-MS/MS analysis; type: ADME, organism-based; conditions: read-out: Ct
[9] = Drug concentration in NMRI mouse brain at 10 mg/kg, ip measured after 1 hr by HPLC-MS/MS analysis; type: ADME, organism-based; conditions: read-out: Ct
[10] = Drug concentration in NMRI mouse plasma at 1 mg/kg, ip measured after 1 hr by HPLC-MS/MS analysis; type: ADME, organism-based
[11] = Drug concentration in NMRI mouse plasma at 3 mg/kg, ip measured after 1 hr by HPLC-MS/MS analysis; type: ADME, organism-based
[12] = Drug concentration in NMRI mouse plasma at 10 mg/kg, ip measured after 1 hr by HPLC-MS/MS analysis; type: ADME, organism-based
[13] = Ratio of drug concentration in brain to plasma in NMRI mouse plasma at 1 mg/kg, ip measured after 1 hr by HPLC-MS/MS analysis; type: ADME, organism-based
[14] = Ratio of drug concentration in brain to plasma in NMRI mouse plasma at 3 mg/kg, ip measured after 1 hr by HPLC-MS/MS analysis; type: ADME, organism-based
[15] = Ratio of drug concentration in brain to plasma in NMRI mouse plasma at 10 mg/kg, ip measured after 1 hr by HPLC-MS/MS analysis; type: ADME, organism-based
Mus musculus [16] = assay: Cognitive activity in scopolamine induced amnesia ip dosed NMRI mouse model assessed as minimum effective dose pretreated with compound for 30 mins followed by scopolamine induction; type: functional; conditions: 0.5 h
[17] = Metabolic stability in human Hepatocyte assessed as intrinsic clearance measured per million cells incubated for 40 mins; type: ADME, cell-based; conditions: hepatocytes, read-out: CLH
[18] = Toxicity in NMRI mouse assessed as effect on locomotor activity at 30 mg/kg, ip; type: organism-based; conditions: in vivo
[19] = Efflux ratio of apparent permeability in human Caco-2 cells at 10 uM; type: ADME, cell-based
[20] = Apparent permeability in human Caco2 cells at 10 uM; type: ADME, cell-based; conditions: Caco-2
[21] = molecular target: Voltage-gated inwardly rectifying potassium channel KCNH2 (Homo sapiens, UniProt Q12809); assay: Inhibition of hERG transfected in CHO cells at -80 mV holding potential by automated patch clamp assay; type: toxicity, cell-based
Sequence of Voltage-gated inwardly rectifying potassium channel KCNH2 (Q12809 whole entry): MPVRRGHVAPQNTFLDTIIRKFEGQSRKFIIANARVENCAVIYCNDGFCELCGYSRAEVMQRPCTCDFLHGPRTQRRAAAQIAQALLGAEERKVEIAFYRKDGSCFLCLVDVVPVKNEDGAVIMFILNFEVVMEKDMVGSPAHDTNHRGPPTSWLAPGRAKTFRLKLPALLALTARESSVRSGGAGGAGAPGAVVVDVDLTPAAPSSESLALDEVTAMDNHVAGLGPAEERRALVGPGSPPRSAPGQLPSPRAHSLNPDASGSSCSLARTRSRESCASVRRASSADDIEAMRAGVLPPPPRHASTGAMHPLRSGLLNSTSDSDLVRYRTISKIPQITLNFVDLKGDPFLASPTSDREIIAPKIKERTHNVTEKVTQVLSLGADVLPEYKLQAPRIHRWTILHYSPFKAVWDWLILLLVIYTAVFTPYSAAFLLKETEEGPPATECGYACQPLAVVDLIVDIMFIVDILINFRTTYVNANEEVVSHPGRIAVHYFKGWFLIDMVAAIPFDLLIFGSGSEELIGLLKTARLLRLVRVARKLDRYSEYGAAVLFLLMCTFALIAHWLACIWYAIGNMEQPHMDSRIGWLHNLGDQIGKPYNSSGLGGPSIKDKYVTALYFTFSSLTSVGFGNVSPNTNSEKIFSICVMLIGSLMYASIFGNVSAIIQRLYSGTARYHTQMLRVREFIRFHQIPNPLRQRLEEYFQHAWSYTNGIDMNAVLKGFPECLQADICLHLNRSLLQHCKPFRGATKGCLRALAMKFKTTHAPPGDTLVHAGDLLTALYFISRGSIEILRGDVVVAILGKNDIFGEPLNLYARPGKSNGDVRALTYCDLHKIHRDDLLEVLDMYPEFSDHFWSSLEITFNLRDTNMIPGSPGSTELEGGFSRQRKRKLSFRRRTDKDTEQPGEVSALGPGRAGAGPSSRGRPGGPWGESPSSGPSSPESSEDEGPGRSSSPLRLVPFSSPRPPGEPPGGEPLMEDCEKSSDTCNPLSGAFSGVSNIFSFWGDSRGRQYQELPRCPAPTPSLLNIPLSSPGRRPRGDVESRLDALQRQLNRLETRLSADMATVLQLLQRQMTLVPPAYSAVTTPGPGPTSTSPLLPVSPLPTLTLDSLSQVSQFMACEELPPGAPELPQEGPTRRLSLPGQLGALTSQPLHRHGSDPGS

Sequence of Neuronal acetylcholine receptor subunit alpha-7 (P36544 whole entry): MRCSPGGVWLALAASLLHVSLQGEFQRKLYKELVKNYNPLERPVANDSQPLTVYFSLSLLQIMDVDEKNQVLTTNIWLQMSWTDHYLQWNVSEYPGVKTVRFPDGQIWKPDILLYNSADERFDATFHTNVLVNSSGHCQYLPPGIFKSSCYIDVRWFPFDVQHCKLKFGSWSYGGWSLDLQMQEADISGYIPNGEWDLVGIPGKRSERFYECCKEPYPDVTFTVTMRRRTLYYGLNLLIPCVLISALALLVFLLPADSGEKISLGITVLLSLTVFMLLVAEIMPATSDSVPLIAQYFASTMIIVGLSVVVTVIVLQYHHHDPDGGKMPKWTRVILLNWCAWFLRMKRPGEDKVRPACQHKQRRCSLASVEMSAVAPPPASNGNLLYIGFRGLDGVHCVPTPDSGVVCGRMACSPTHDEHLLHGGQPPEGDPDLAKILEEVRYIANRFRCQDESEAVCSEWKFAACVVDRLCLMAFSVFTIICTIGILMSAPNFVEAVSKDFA

| solubility kinetic at 2 h [1] [µM] | EC50 [2] [nM] | microsomal CLint [3] [µL/min/mg] | microsomal CLint [4] [µL/min/mg] | microsomal CLint [5] [µL/min/mg] | concentration at 1 h [7] [ng/g] | concentration at 1 h [8] [ng/g] | concentration at 1 h [9] [ng/g] | concentration at 1 h [10] [ng/mL] | concentration at 1 h [11] [ng/mL] | concentration at 1 h [12] [ng/mL] | Kp at 1 h [13] | Kp at 1 h [14] | Kp at 1 h [15] | SMILES | Activity (Mus musculus [6]) | MED (Mus musculus [16]) [mg/kg] | other results |
| --- | --- | --- | --- | --- | --- | --- | --- | --- | --- | --- | --- | --- | --- | --- | --- | --- | --- |
| 2.5 (≈ 1.05 µg/mL) | 200 | 17 | 77 | 123 | 46.8 | 174 | 438 | 179 | 689 | 2090 | 0.26 | 0.25 | 0.22 | Cn1ccc2cc(CNC(=O)N3CC(COc4ccc(C(F)(F)F)cc4)C3)cnc21 | Active | – | – |
| 46 (≈ 18.1 µg/mL) | – | 13 | 30 | 49 | 29 | 78.5 | 248 | 107 | 262 | 2050 | 0.27 | 0.3 | 0.31 | Cn1ccc2cc(CNC(=O)N3CC4(CC(=O)c5ccc(F)cc5O4)C3)ccc21 | Active | 10 | hepatocyte CLint [17]: 10.3 µL/min/1e6 cells; Activity [18]: Non-Toxic |
| 14.2 (≈ 5.98 µg/mL) | 85 | 39 | 44 | 36 | 201 | 678 | 2810 | 167 | 610 | 4230 | 1.2 | 1.12 | 0.66 | O=C(NCc1ccc2[nH]ccc2c1)N1CC(COc2ccc(C(F)(F)F)c(F)c2)C1 | Active | 3 | efflux ratio at 10 µM [19]: 1.3; Papp at 10 µM [20]: 63 ×10⁻⁶ cm/s; IC50 [21]: 10 µM |
